From patent US3969530A, “4-Hydroxy-3,5-di-alkyl-phenyl-propionic acid composition suitable as lipid lowering and anti-diabetic agents” (Hoechst Aktiengesellschaft, priority 1972, dated 1976) come the findings set out here.

A short description of one data set: in vivo. Particulars: mouse, po, male mice.
For a further data set, the system named is serum lipid values. Briefly: Reduction of serum lipid values in normolipemic rats (Table 1). Format: in vivo, male rats. The settings on record: 8 doses; for Change in percentage of serum cholesterol, column A / Change in percentage of serum triglyceride, column A: A: referred to the initial value of the treated group; for Change in percentage of serum cholesterol, column B / Change in percentage of serum triglyceride, column B: B: referred to untreated control group. Here is the method: 1. Male rats having a normal serum lipid content were being treated for eight days with different daily doses mentioned in Table 1. The values given in that Table stand for a change in the serum concentrations of certain lipid classes.
The doses were administered per os by means of an esophagal sound. Generally, prior to and after the treatment, blood samples were taken and the concentration of cholesterol in the serum was determined according to the method of Lauber and Richterich and that of triglycerides according to the method of Eggstein and Kreutz. In the examples of the following Table 1, the changes in the serum lipid values due to the treatment with the substances of the invention are defined as follows:
a. The changes in percent in the final value of the treated group, referred to the initial value of the treated group, the initial value being 100 per cent, and
b. the change in the final value of the treated group, referred to the final value of an accompanying untreated control group, the untreated group's value being defined as 100 %. Thus, the value given in columns A is the change in percentage referred to the initial value, the value given in columns B is the change in percentage of the treated group, referred to the untreated control group.

Data set [1] concerns serum lipid concentration. Briefly: Dietetic-medicamentous hyperlipemia (hypercholesteremia) of male rats (Table 2). Format: in vivo. Particulars: 100 mg/kg/day, 8 doses, esophagal sound; hyperlipemic diet. The text has this: 2. Dietetic-medicamentous hypercholesteremia of male rats
All the animals were fed with a diet food containing 2% of cholesterol, 2% of sodium cholate, 0.3% of methyl-thio-uracil, 20% of coco fat and 44% of cane sugar. The serum lipid concentration of the animals treated with the cited compounds was compared to that of an untreated control group being on the same diet which causes the serum cholesteral concentration to rise within one week to about 10 times the initial value, that of the serum triglycerides to 3 times and that of the phospholipids in the serum to 4 times the initial value. The lipid phosphorus was determined according to the method of Messrs. Boehringer Mannheim W. Germany. At the same time as the diet was offered the cited compounds were administered once a day to groups of rats, each containing 10 animals, over a period of 8 days by means of an esophagal sound. The change in percentage in the serum lipid concentration as compared to the control group (diet without active substance) is indicated in Table 2.

Data set [2] concerns blood sugar level. The data set is described as follows: Blood sugar level in male rats fed fructose doses. The settings on record: 100 mg/kg/day, 3 days pretreatment, 24 hours after the last administration; fructose doses per os. Format: in vivo. The procedure:
(§1) The hypoglycemic activity had been established as follows, the blood sugar level having been determined by means of an autoanalyzer:
In the case of male rats having been feed fructose doses per os and pretreated for 3 days with 100 mg/kg/day of the same compound, the blood sugar level was lowered by -17% 24 hours after the last administration.

Data set [3] relates to blood sugar level. The data set is described as follows: Blood sugar level in alloxan-diabetic male rats. Format: in vivo. Particulars: 100 mg/kg/day per os, 8 days, 20 hours after the last administration, vs untreated group; insulin-substituted. The procedure: as §1
1. On alloxan-diabetic male rats substituted with insulin before the beginning of the test, that were offered food ad libitum, 100 mg/kg/day of 4-hydroxy-3,5-di-t.-butyl-phenylpropionic acid n-octadecyl ester administered per os once a day during 8 successive days lowered the blood sugar level 20 hours after the last administration by -18% as compared with an untreated group.

The subject of data set [4] is blood sugar level. The data set is described as follows: Tolerance test with oral glucose in fasted male rats. Format: in vivo. The procedure:
as §1
2. In the tolerance test with glucose doses administered per os to male rats that had fasted for 22 hours and that were administered 19 and 3 hours before the glucose administration (1g/kg) per os 100 mg/kg of the test preparation, 4-hydroxy-3,5-di-t.-butyl-phenyl-propionic acid n-octadecyl ester caused a lowering of the blood sugar level by -21% 3 hours after being fed with glucose.

Turning to `CCOC(=O)C(C)(C)Oc1ccc(Cl)cc1` [Clofibrat, reference compound], the LD50 in “in vivo” was 2000 to 2500 mg/kg. Moreover, in the data set on serum lipid values (30 mg/kg/day p.o.), the “Change in percentage of serum cholesterol, column A” value is recorded as -7%; the “Change in percentage of serum triglyceride, column A” value is given as “+4%”; the “Change in percentage of serum cholesterol, column B” value is listed as -7%; the “Change in percentage of serum triglyceride, column B” value was -13%. Besides, the “Change in percentage of serum cholesterol referred to the untreated group” value in data set [1] was determined as 0%.

In the case of `CC(C)(C)c1cc(CCC(=O)O)cc(C(C)(C)C)c1O` [Example 2, 4-hydroxy-3,5-di-t.-butyl-phenyl-propionic acid], in the data set on serum lipid values (10 mg/kg/day p.o.), the “Change in percentage of serum triglyceride, column A” value is listed as -21% and the “Change in percentage of serum triglyceride, column B” value is on record as -26%. Besides, in the data set on serum lipid values (30 mg/kg/day p.o.), the “Change in percentage of serum triglyceride, column A” value is -23% and the “Change in percentage of serum triglyceride, column B” value is reported as -38%. For the same compound, in the data set with serum lipid values (100 mg/kg/day p.o.), the “Change in percentage of serum triglyceride, column A” value is -32%; the “Change in percentage of serum cholesterol, column B” value is -12%; the “Change in percentage of serum triglyceride, column B” value is on record as -38%.

On to `CCCCCCCCCCCCCCCCCCOC(=O)CCc1cc(C(C)(C)C)c(O)c(C(C)(C)C)c1` [Example 3, 4-hydroxy-3,5-di-t.-butyl-phenyl-propionic acid-n-octadecyl ester], for which the “lowering of the blood sugar level” value is reported as -17% in the data set on blood sugar level [2]; -18% in the data set on blood sugar level [3]; -21% with blood sugar level [4] (100 mg/kg per os 19 and 3 hours before glucose (1g/kg), 3 hours after glucose, fasted 22 hours). The LD50 in the data set “in vivo” came out at 8000 mg/kg. Besides, the “Change in percentage of serum triglyceride, column B” value in the data set on serum lipid values (30 mg/kg/day p.o.) is -25%; in the data set on serum lipid values (100 mg/kg/day p.o.), -16%. Besides, in the data set on serum lipid values (100 mg/kg/day p.o.), the “Change in percentage of serum triglyceride, column A” value is on record as -33%. In the data set on blood sugar level [4] (100 mg/kg per os, comparison preparation phenformin), the “lowering of the blood sugar level compared with phenformin” value is on record as “in the same order of magnitude as that obtained with the comparison preparation phenformin”.

With `COC(=O)CCc1cc(C(C)(C)C)c(O)c(C(C)(C)C)c1` [Example 5, 4-hydroxy-3,5-di-t.-butylphenyl-propionic acid methyl ester], the “Change in percentage of serum triglyceride, column B” value with serum lipid values (10 mg/kg/day p.o.) is given as -3%. Moreover, the “Change in percentage of serum triglyceride, column B” value in the data set on serum lipid values (30 mg/kg/day p.o.) was -42%. In the data set with serum lipid values (100 mg/kg/day p.o.), the “Change in percentage of serum cholesterol, column A” value is on record as -3%; the “Change in percentage of serum triglyceride, column A” value is -60%; the “Change in percentage of serum triglyceride, column B” value is -71%.

For `CCCCOC(=O)CCc1cc(C(C)(C)C)c(O)c(C(C)(C)C)c1` [Example 6, 4-hydroxy-3,5-di-t.-butylphenyl-propionic acid-n-butyl ester], the “Change in percentage of serum triglyceride, column B” value in the data set with serum lipid values (10 mg/kg/day p.o.) is reported as -17%. For the same compound, the “Change in percentage of serum triglyceride, column B” value in the data set with serum lipid values (30 mg/kg/day p.o.) is -27%. For the same compound, in the data set with serum lipid values (100 mg/kg/day p.o.), the “Change in percentage of serum cholesterol, column A” value is reported as -10%; the “Change in percentage of serum triglyceride, column A” value is reported as -54%; the “Change in percentage of serum triglyceride, column B” value is reported as -58%.

For the compound `CC(C)(C)c1cc(CCC(=O)OCC(COC(=O)CCc2cc(C(C)(C)C)c(O)c(C(C)(C)C)c2)(COC(=O)CCc2cc(C(C)(C)C)c(O)c(C(C)(C)C)c2)COC(=O)CCc2cc(C(C)(C)C)c(O)c(C(C)(C)C)c2)cc(C(C)(C)C)c1O` [Example 7, Tetra-(4-hydroxy-3,5-di-t.-butylphenyl-propionic acid)-pentaerythritol ester], in the data set on serum lipid values (30 mg/kg/day p.o.), the “Change in percentage of serum triglyceride, column B” value is listed as -27%. In addition, in the data set on serum lipid values (100 mg/kg/day p.o.), the “Change in percentage of serum cholesterol, column A” value is recorded as -5%; the “Change in percentage of serum cholesterol, column B” value is recorded as -7%; the “Change in percentage of serum triglyceride, column B” value is listed as -17%.

As a reminder, the LD50 is the dose expected to kill half of the subjects tested. Read a high LD50 as a less toxic substance.
